The source made the active and inactive calls. No cut-off for these calls is given here.
Assays:
[1] = target: T1, Tyrosinase (Mus musculus) (UniProt P11344); experiment: Inhibition of tyrosinase in alpha-MSH-stimulated mouse B16F10 cells assessed as inhibition of L-DOPA oxidation at 40 to 120 uM after 72 hrs by spectrophotometry; type: cell-based; details: B16-F10
T1 sequence (whole entry): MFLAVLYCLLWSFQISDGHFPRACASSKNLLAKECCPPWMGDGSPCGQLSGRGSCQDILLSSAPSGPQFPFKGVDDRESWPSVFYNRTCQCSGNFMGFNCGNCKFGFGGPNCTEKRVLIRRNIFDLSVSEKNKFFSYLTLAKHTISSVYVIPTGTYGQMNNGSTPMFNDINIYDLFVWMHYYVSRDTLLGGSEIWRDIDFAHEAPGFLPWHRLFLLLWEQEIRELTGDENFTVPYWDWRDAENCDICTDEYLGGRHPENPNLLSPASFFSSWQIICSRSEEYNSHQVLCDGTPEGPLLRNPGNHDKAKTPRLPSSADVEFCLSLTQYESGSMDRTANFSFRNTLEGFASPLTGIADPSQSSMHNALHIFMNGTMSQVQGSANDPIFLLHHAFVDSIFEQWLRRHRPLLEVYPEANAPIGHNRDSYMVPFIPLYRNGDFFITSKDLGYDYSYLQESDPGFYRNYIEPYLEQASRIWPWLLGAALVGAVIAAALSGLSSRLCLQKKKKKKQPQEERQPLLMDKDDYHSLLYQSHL

[2] = system: B16-F10; experiment: Antimelanogenic activity in mouse B16F10 cells assessed as inhibition of alpha-MSH-induced melanin formation at 40 to 120 uM after 72 hrs by spectrophotometry; type: functional, cell-based
[3] = Cytotoxicity against mouse B16F10 cells assessed as cell viability at 40 to 120 uM after 72 hrs by MTT assay; type: cell-based, B16-F10
[4] = target: T2, Tyrosinase (Agaricus bisporus) (UniProt O42713); experiment: (§1) Inhibition of mushroom tyrosinase hydroxylation activity using L-tyrosine as substrate after 30 mins by spectrophotometry
T2 sequence (whole entry): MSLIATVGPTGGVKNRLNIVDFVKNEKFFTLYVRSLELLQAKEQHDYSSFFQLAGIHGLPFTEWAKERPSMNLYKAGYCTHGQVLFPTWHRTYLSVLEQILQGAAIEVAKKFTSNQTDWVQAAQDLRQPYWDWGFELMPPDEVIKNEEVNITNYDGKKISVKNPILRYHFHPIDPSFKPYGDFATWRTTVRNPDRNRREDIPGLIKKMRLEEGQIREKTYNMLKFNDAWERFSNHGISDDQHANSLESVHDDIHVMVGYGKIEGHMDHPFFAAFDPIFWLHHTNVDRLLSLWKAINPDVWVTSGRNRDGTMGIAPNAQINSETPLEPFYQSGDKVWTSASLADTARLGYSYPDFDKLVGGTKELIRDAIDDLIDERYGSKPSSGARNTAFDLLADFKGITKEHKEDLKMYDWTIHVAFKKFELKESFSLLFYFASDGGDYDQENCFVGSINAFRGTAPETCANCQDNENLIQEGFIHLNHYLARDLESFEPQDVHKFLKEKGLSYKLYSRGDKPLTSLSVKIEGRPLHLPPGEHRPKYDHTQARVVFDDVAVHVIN

[5] = target: T3, Tyrosinase (Agaricus bisporus, UniProt O42713); experiment: as §1
T3 sequence (O42713 whole entry): T2 sequence (whole entry)

[6] = target: T2, Tyrosinase (Agaricus bisporus); experiment: Inhibition of mushroom tyrosinase hydroxylation activity using L-tyrosine as substrate at 120 uM after 30 mins by spectrophotometry
[7] = target: T2, Tyrosinase (Agaricus bisporus); experiment: Non-competitive inhibition of mushroom tyrosinase assessed as inhibition of dopachrome formation by Lineweaver-Burk plot analysis

| inhibition [1] | inhibition [4] | IC50 [5] [µM] | inhibition [6] [%] | inhibition [7] | Compound | Activity [2] | viability at 72 h, up to 120 µM [3] [%] |
| --- | --- | --- | --- | --- | --- | --- | --- |
| Active |  |  |  |  | OC[C@H]1O[C@@H](Oc2ccc(O)cc2)[C@H](O)[C@@H](O)[C@@H]1O | Active |  |
| Active | Dose-dependent effect | 20 | 89.3 | Active | Oc1cc(O)cc(Oc2c(O)cc(O)c3c2Oc2c(O)cc(Oc4c(O)cc(Oc5c(O)cc(O)c6c5Oc5c(O)cc(O)cc5O6)cc4O)cc2O3)c1 [DIECKOL] | Active | > 95 |
